Patent US20220362127A1, “BIOENERGETIC COMBINATIONS AND METHODS OF USING SAME” (Conopco, Inc., d/b/a UNILEVER, priority 2019, published 2022)
Marks after values point to notes of the source that are not given here.

How the values were obtained:
[1] = tested on: human keratinocytes; assay: Mitochondrial fragmentation in keratinocytes, UV Study (Example 2), TPEF imaging of NADH, PSD exponent β; assay type: cell-based; conditions: B3 10 mM, AceMet 500 uM, MeNAM 10 mM alone or 500 uM with B3; for Effect on UV-induced mitochondrial fragmentation in words: UV-exposed; for Mitochondrial Fragmentation (−) UV (3 days) / Mitochondrial Fragmentation (+) UV (4 days): keratinocytes; for Mitochondrial Fragmentation (−) UV (3 days): 3 days before UV exposure, control 1.30; for Mitochondrial Fragmentation (+) UV (4 days): 4 days after UV exposure (4 J/cm^2 UVA+UVB, 14 min daily), UV control 1.58
Protocol: Test compounds (B3, AceMet and MeNAM) were purchased from Sigma (St. Louis, Mo.). Cell culture growth media (Epilife media with calcium (Cat #MEPI500CA) and Epilife media supplement HKGS 100X (Cat #S-001-5)) was purchased from Thermofisher (Waltham, Mass.). Cryopreserved human keratinocytes cells (˜1×10^6 cells) were plated on 12-well glass bottom plates at a confluence of ˜15%. The cells were suspended in primary keratinocyte growth media (Epilife media with calcium) and incubated @ 37° C. for 1d (Day 0). At Day 1, cells began treatment with supplemented primary keratinocyte growth media (Epilife media with calcium supplemented with HKGS 100X; 25 ml total) without test compound (Control sample) or containing test compounds B3 (10 mM), MeNAM (10 mM), AceMet (500 uM), B3 (10 mM)+AceMet (500 uM) or B3 (10 mM)+MeNAM (500 uM). Cell treatment (25 ml media with or without test compounds as above) continued daily for 4 additional days (Non-UV Study—Example 1) or 2 additional days (UV Study—Example 2). For the UV Study, cells were subjected to UV treatment on Day 4 by replacing media with PBS, exposing cells to UV light (4 J/cm^2 of UVA+UVB) for 14 min and feeding cells with media with or without corresponding test compounds as defined above. UV treatments continued daily for 3 additional days (Days 5, 6 and 7). Image acquisition and analysis on all cell wells to assess mitochondrial fragmentation was conducted on Day 1, 3, 5 and 8.
(§1) For two-photon excited fluorescence (TPEF) imaging, cell cultures were placed in microscope-compatible micro-incubator system, which maintained 37° C. within a humidified environment throughout the imaging session.
HEPES buffering agent (Sigma) was added to cell cultures in primary keratinocyte growth medium before imaging, which maintained the pH of cell cultures throughout the imaging session. Images were obtained using a Leica TCS SP8 confocal microscope equipped with a tunable (680-1300 nm) titanium-sapphire laser (InSight Deep See; Spectra Physics; Mountain View, Calif.). Images (1024×1024 pixels; 386×386 μm) were acquired using water-immersion 25×objective (NA 0.95; 2.4 mm working distance), with simultaneous collection by two non-descanned photomultiplier tube (PMT) detectors using a filter cube containing filters from Chroma (Bellows Falls, Vt.), including a 700 nm short pass filter (ET700SP-2P) and a 495 nm dichroic mirror (495DCXR). To isolate NADH fluorescence, a 460(±20) nm emission filter (Chroma, ET460/40M-2P), corresponding to the NADH emission peak, was placed before one of the non-descanned detectors. NADH fluorescence images were acquired from this 460 nm channel using 755 nm excitation. FAD fluorescence was isolated using a 525(±25) nm emission filter (Chroma, ET525/50M-2P) for the other non-descanned detector and 860 nm excitation. The two-photon action cross section of NADH decreases by several orders of magnitude between 755 nm and 860 nm excitation, enabling an efficient isolation of FAD at longer wavelengths. The fluorescence lifetime images (512×512 pixels; 386×386 μm) corresponding to NADH were acquired under the same excitation and emission settings, using SymPho software. PMT gain was adjusted for each image to maximize contrast while preventing a saturated pixel intensity value. The PMT gain and laser power were recorded for each image and used to normalize fluorescence intensity.
To assess mitochondrial fragmentation, a previously established Fourier transform technique was used to obtain power spectral density (PSD) curves from each image. […]

[2] = tested on: human keratinocytes; assay: Mitochondrial fragmentation in keratinocytes (Non-UV Study, Example 1), TPEF imaging of NADH, PSD exponent β; assay type: cell-based; conditions: no UV, B3 10 mM
Protocol: Test compounds (B3, AceMet and MeNAM) were purchased from Sigma (St. Louis, Mo.). Cell culture growth media (Epilife media with calcium (Cat #MEPI500CA) and Epilife media supplement HKGS 100X (Cat #S-001-5)) was purchased from Thermofisher (Waltham, Mass.). Cryopreserved human keratinocytes cells (˜1×10^6 cells) were plated on 12-well glass bottom plates at a confluence of ˜15%. The cells were suspended in primary keratinocyte growth media (Epilife media with calcium) and incubated @ 37° C. for 1d (Day 0). […]
as §1
HEPES buffering agent (Sigma) was added to cell cultures in primary keratinocyte growth medium before imaging, which maintained the pH of cell cultures throughout the imaging session. […] To isolate NADH fluorescence, a 460(±20) nm emission filter (Chroma, ET460/40M-2P), corresponding to the NADH emission peak, was placed before one of the non-descanned detectors. NADH fluorescence images were acquired from this 460 nm channel using 755 nm excitation. FAD fluorescence was isolated using a 525(±25) nm emission filter (Chroma, ET525/50M-2P) for the other non-descanned detector and 860 nm excitation. […]

SMILES | Effect on mitochondrial fragmentation in words, Non UV-exposed keratinocytes [1] | Effect on UV-induced mitochondrial fragmentation in words [1] | Mitochondrial Fragmentation (−) UV (3 days) [1] | Mitochondrial Fragmentation (+) UV (4 days) [1] | Mitochondrial Fragmentation ([2]; keratinocytes after 5 days exposure, AceMet 500 uM, MeNAM 500 uM, higher value = less protection, control 1.88) | Effect on mitochondrial fragmentation in words ([2]; keratinocytes, 5 days, AceMet or MeNAM 500 uM)
CSCC[C@H](NC(C)=O)C(=O)O [AceMet, N-acetylmethionine] | does not significantly reduce mitochondrial fragmentation | increases mitochondrial fragmentation beyond UV-exposed levels | 1.47^c,e | 1.76^c,e,h | – | –
NC(=O)c1cccnc1 [B3, Nicotinamide] | does not significantly reduce mitochondrial fragmentation | effective at reducing this UV-induced effect down to control levels | 1.18 | 1.34 ^d | 1.67 ^a | decreases mitochondrial fragmentation
C[n+]1cccc(C(N)=O)c1 [MeNAM, 1-methylnicotinamide chloride] | significantly reduces mitochondrial fragmentation | effective at reducing this UV-induced effect down to control levels | 1.15^a | 1.29^a,d | – | –
